Measurements from US6368788B1 (priority 1987, dated 2002).
Where “and” joins values, the source holds several entries; their conditions need not be identical. Identical values can stand only once. Marks after values point to notes of the source that are not given here.

What was measured:
[1] = system: peripheral blood lymphocytes; experiment: Protocol A3 Group 1A: chronic pyoderma; format: in vivo, human
From the text: Group 1A (a subgroup of Group 1) consisted of 32 patients (17 males and 15 females ranging from 17 to 42 years of age) with chronic pyococcal skin diseases including furunculosis, disseminated impetigo, multiple ecthymas, recurring osteofolliculitis, seborrhea adiposa, and concrete seborrhea complicated by vulgar or abscessing acne. Diseases were characterized by a chronic course or frequent relapses, and at the time of presentation for entry into the trial, all patients had received several prior courses of antibiotic therapy, none of which led to any detectable clinical improvement. Patients in Group 1A were randomly divided into two treatment groups, the first consisting of 16 patients treated with L-Glu-L-Trp according to Therapy A, below, and the second consisting of 16 patients treated (as a control) according to conventional therapeutic methods- i.e., Therapy B (below).
In treatment Protocol A, all patients received L-Glu-L-Trp in combination with antibiotics.
Therapy B (conventional therapy control): All patients in this protocol received the same antibiotics as in Therapy A and a nonspecific stimulatory agent, i.e., Thymogenin instead of L-Glu-L-Trp.
Local antibiotics were administered as follows: Ampicillin (4), oxacillin (4), Levomycetin (1), tetracycline (9), Rondomycin (2), deoxycycline (8), cephalexin (2), and Rifampicin (1).

Gingivitis = experiment: Gingivitis; set-up: species or system human; settings: in vivo
Experimental: Patients were treated for gingival disease by subcutaneous administration of L-Glu-L-Trp into the area of the gingiva. […] Approximately 160 patients were studied, 80 patients were treated with L-Glu-L-Trp and an equal number were treated using conventional therapy (control). […] Normalization of immunologic indices and coagulation in the L-Glu-L-Trp treated patients was correlated with favorable clinical outcome.

T-lymphocyte function = experiment: Naval specialists with occupational immunologic impairments; format: in vivo, human; settings: 3 daily intranasal doses of 100 mcg
Experimental: A clinical trial was conducted of 152 naval specialists (aged 20-40 years) with evidence of occupational immunologic impairments resulting from their exposure to radiation and occupational toxins in the Kosomolets nuclear submarine sinking off the coast of […]. L-Glu-L-Trp was evaluated for its possible effects on cellular and/or humoral immunity. Approximately 87% of the servicemen entered into the trial had moderate to severely impaired T-lymphocyte functional activity, (i.e., evidenced by decreased LMIR and blastogenesis with Con-A) and reduced neutrophil phagocytic activity (i.e., 30-40% of normal). Immune parameters were determined before and after a routine 21-24 day rest period, during a normal rest/recuperation and training rotation. Servicemen were divided into two groups, the first (control) group received no treatment, and the second (experimental) group of 88 servicemen received three consecutive daily intranasal doses of 100 mcg L-Glu-L-Trp.

Wound healing = experiment: Wound healing; set-up: species or system human; settings: in vivo
Experimental: L-Glu-L-Trp was administered to 37 patients with wounds of various origins, types and localizations. Patients in the control group (24) received conventional treatments. L-Glu-L-Trp was administered daily im (or topically) on each of 10 consecutive days. The im dose was 100 μg.

[2] = Occupational radiation exposure to 100-200 R; set-up: species or system human; settings: in vivo
From the text: A total of 263 patients and 18 control patients sustained exposure to 100-200 Roentgens of occupational radiation over a period of several weeks.

Herpes vulgaris = settings: in combination with interferon; 7-10 outbreaks per year before
influenza = experiment: Volunteers experimentally infected with influenza (Protocol I); settings: human, in vivo
From the text: Thirty-four similarly infected volunteers (34) served as untreated controls. […] The hematological and immunological indices examined immediately following the period of treatment were restored to within the normal range.

[3] = Chronic primary gastritis and gastro-duodenitis; format: in vivo, human
From the text: Twenty two patients (all men aged 18-30 years) suffering from chronic primary gastritis and gastro-duodenitis were entered into the trial. Diagnosis was based on physical examination, and clinical and laboratory investigations including roentgenoscopy and endoscopic examination of the stomach and duodenum. Patient entry criteria was further conditioned on the results of laboratory tests for i) pre-treatment immune indices (i.e., numbers of lymphocytes, T-, and B-lymphocytes, etc.; TABLE 46) and ii) the in vitro sheep red blood cell rosette forming response of T-lymphocytes to L-Glu-L-Trp, (i.e., whether in vitro incubation of patient peripheral blood lymphocytes with L-Glu-L-Trp increased the percentage of E-RFC). […] These twelve patients were entered into the trial.
For determining normal values, the control group consisted of 28 normal healthy volunteers aged 17-23.
Patients received L-Glu-L-Trp im daily at a dosage of 100 μg for 5 days in combination with their conventional ongoing treatment.

neutrophils = experiment: Neutrophil response to proteose peptone and phagocytic activity in CBA mice; format: in vivo; settings: for Phagocytes (%) / Phagocytic Index: induced neutrophils; for Total Number of Cells Induced: neutrophil response to proteose peptone
[4] = Group 1A chronic pyoderma, after L-Glu-L-Trp Therapy (n = 16)
[5] = After L-Glu-L-Trp Combination Therapy

For L-Glu-L-Trp, the B-Lymphocytes [1, 4] was 0.15 ± 0 ×10^9/L, the “B-Lymphocytes % Normal Value” [1, 4] was “(31%)” and the “B-Lymphocytes (%)” value [1, 4] was 7 ± 3%. For the same substance, the “Basophils (%)” value [1, 4] was 0.01 ± 0%, the “Eosinophils (%)” value [1, 4] was 4.2 ± 1% and the “Erythrocyte (sed. rate mm)” value [1, 4] was 13.1 ± 1 mm. The Erythrocytes [1, 4] was 4.2 ± 0.1 10^12/L, the IgA [1, 4] was 2.7 ± 1 g/L and the “IgA % Normal Value” [1, 4] was “(143%)”. The IgG [1, 4] was 16.2 ± 1 g/L, the “IgG % Normal Value” [1, 4] was “(150%)” and the IgM [1, 4] was 1 ± 0 g/L. For the same substance, the “IgM % Normal Value” [1, 4] was “(65%)”, the Leukocytes [1, 4] was 8.7 ± 0.5 ×10^9/L and the “Leukocytes % Normal Value” [1, 4] was “(130%)”. For the same substance, the Lymphocytes [1, 4] was 2.0 ± 0.2 ×10^9/L, the “Lymphocytes % Normal Value” [1, 4] was “(71%)” and the Lymphocytes, % [1, 4] was 25.9 ± 2.2%. For the same substance, the “Monocytes, %” value [1, 4] was 4.5 ± 1%, the “Neutrophils, %” value [1, 4] was 63.8 ± 4% and the T-Lymphocytes [1, 4] was 1.15 ± 0 ×10^9/L. For the same substance, the “T-Lymphocytes % Normal Value” [1, 4] was “(68%)”, the “T-Lymphocytes (%)” value [1, 4] was 52.3 ± 5% and the T-helper [1, 4] was 0.92 ± 0.09 ×10^9/L. For the same substance, the “T-helper % Normal Value” [1, 4] was “(70%)”, the “T-helper (%)” value [1, 4] was 45.4 ± 4.9% and the T-suppressor [1, 4] was 0.51 ± 0 ×10^9/L. For the same substance, the “T-suppressor % Normal Value” [1, 4] was “(131%)”, the “T-suppressor (%)” value [1, 4] was 28.2 ± 4% and the “Blast Transform., Con-A” value ([1]; Group 1A, L-Glu-L-Trp Therapy) was 62.8 ± 8 % of PBL. The “Blast Transform., PHA” value ([1]; Group 1A, L-Glu-L-Trp Therapy) was 42.7 ± 7 % of PBL, the “Blast Transform., Staph-A” value ([1]; Group 1A, L-Glu-L-Trp Therapy) was 85.6 ± 9 % of PBL and the Clinical outcome (Gingivitis) was “arrest of gingival disease”. For the same substance, the “T-lymphocyte function, T4/T8 ratio, granulocyte lysosomal cation proteins” value (T-lymphocyte function) was “pronounced increase”, the Clinical outcome (Wound healing) was “accelerated wound healing” and the Outcome [2] was “restoration of normal, or near normal, peripheral blood immune indices in all patients”. The Outbreaks after treatment (Herpes vulgaris) was “less than one outbreak per year”, the Clinical outcome (influenza) was “normalization of fever, reduction in toxic symptoms” and the B-Lymphocytes [3, 5] was 0.14 ± 0.02 ×10^9/L. The “B-Lymphocytes % Normal Value” [3, 5] was “(97%)”, the “B-Lymphocytes (%)” value [3, 5] was 7.2 ± 1.5% and the “Null Lymphocytes” value [3, 5] was 0.9 ± 0.05 ×10^9/L. For the same substance, the “Null Lymphocytes % Normal Value” [3, 5] was “(145%)”, the “Null Lymphocytes (%)” value [3, 5] was 37.3 ± 2.0 % and the T-Lymphocytes [3, 5] was 1.04 ± 0.04 ×10^9/L. The “T-Lymphocytes % Normal Value” [3, 5] was “(96%)”, the “T-Lymphocytes (%)” value [3, 5] was 55.4 ± 2.1 % and the Clinical outcome ([3]; in vivo) was “more rapid recovery”. For the same substance, the Exudate cell concentration (neutrophils; 0.01 mg/kg) was 0.9×10^6, the “Neutrophil migration and phagocytic activity” value (neutrophils; 0.01 mg/kg) was “did not appear to stimulate neutrophil migration” and the “Increase in percentage of phagocytic cells” value (neutrophils; 1 mg/kg, six day ip pretreatment) was 1.5 fold and 1.7 fold. The “Phagocytes (%)” value (neutrophils; 0.1 mg/kg (so in the source)) was 17.8 ± 1.13%, the “Phagocytic Index” value (neutrophils; 0.1 mg/kg (so in the source)) was 1.90 ± 0.05 No. bacteria/phagocyte and the “Phagocytes (%)” value (neutrophils; 1 mg/kg) was 31.5 ± 0.4 %. For the same substance, the “Phagocytic Index” value (neutrophils; 1 mg/kg) was 1.89 ± 0.03 No. bacteria/phagocyte, the “Number of neutrophils induced by proteose peptone” value (neutrophils; ip pretreatment (0.1 mg/kg)) was “doubled” and the “Total Number of Cells Induced” value (neutrophils; 0.01 mg/kg ip pretreatment) was 50 ×10^6. For the same substance, the “Total Number of Cells Induced” value (neutrophils; 1 mg/kg ip pretreatment) was 80* ×10^6 and the “Neutrophils, Phagocytic Index” value (neutrophils; treated mice, sterile inflammatory agent) was “ns”.
